The nature of the data set: in vitro. To be noted: human, hela cells, % viability.

Usually viability stands for a read-out of living cells in per cent, often relative to untreated cells.

Consider `COCCNC(=O)c1sc2ncn(CC(=O)Nc3ccccc3OC)c(=O)c2c1C` [CBK071846], for which the viability at 28.5 h, 10 µM came out at 88.7%. As for `CCOc1cccc(-c2cn3ccnc3c(N3CCN(CCO)CC3)n2)c1` [CBK066612], the viability at 28.5 h, 10 µM turned out to be 95.9%.

In the case of `O=C(NCCc1c[nH]c2ccc(Cl)cc12)c1ccc(Br)cc1Cl` [CBK159762], the viability at 28.5 h, 10 µM came out at 89.1%.

With `OC[C@H]1CCN(Cc2cc(Cl)ccc2OCCCn2ccnc2)C[C@H]1O` [CBK306581], the viability at 28.5 h, 10 µM came to 88.4%. Regarding `CNS(=O)(=O)c1cc(C(=O)NCc2ccccc2)ccc1OC` [CBK270277], the viability at 28.5 h, 10 µM amounted to 94.9%.

For the molecule `CN(C)c1ccc(/C=C/CN2CCN(c3ccc([N+](=O)[O-])cc3)CC2)cc1` [CBK261904], the viability at 28.5 h, 10 µM was 96.9%. For the molecule `CC(C)(O)CCN(Cc1ccc(-c2ccc(S(C)(=O)=O)cc2)nc1)C1CCN(C(=O)OC(C)(C)C)CC1` [CBK167517], the viability at 28.5 h, 10 µM stood at 101%. `Cc1cc(=O)c2ccccc2n1CC(=O)N1CCOC2(CCCC2)C1` [CBK306811]: the viability at 28.5 h, 10 µM was determined as 93.5%. To `CCCCn1nc(C(=O)N2CCCCC2c2ncc(-c3cccc(F)c3)[nH]2)ccc1=O` (stereo not shown) [CBK291149] belongs 98.6%; to `CC1Cc2ccccc2N1C(=O)Cn1c(CCCO)nc2ccccc21` (stereo not shown) [CBK297548], 86.1%. As for `O=c1n(CC2CCCCC2)c2ccccc2n1S(=O)(=O)c1ccc2ccccc2c1` [CBK106527], the figure is 92.5%; as for `CCOC(=O)c1c(NC(=O)CSc2nnnn2C)sc(C)c1C` [CBK268798], 103%; as for `CCSc1nnc(-c2cccnc2)n1Cc1ccccc1` [CBK076664], 84.4%. For the molecule `CNC(=O)CN(C)Cc1c(C(=O)N2CCOCC2)nc2c(C)cccn12` [CBK307128], the viability at 28.5 h, 10 µM came to 114%. As for `CN(CCN1CCCCC1)C(=O)c1cc2c([nH]1)CCCC2` [CBK281836], the viability at 28.5 h, 10 µM came out at 86.5%. For `COc1ccc2c(-n3cncn3)ccnc2c1` [CBK025957], the viability at 28.5 h, 10 µM was 90.2%. With `COc1c(Cl)cc(Cl)cc1CNC1CCCc2c1cnn2C` (stereo not shown) [CBK304305C], the viability at 28.5 h, 10 µM came out at 90.6%. `COc1ncc(-c2nccnc2Oc2cccc(NC(C)=O)c2)c(OC)n1` [CBK106747]: the viability at 28.5 h, 10 µM stood at 89.6%.

Regarding `COc1ccccc1NC(=S)NCCN(C)C` [CBK265343], the viability at 28.5 h, 10 µM was 111%. `Cc1ccc(Oc2cc(C)c([N+](=O)[O-])cn2)c(Br)c1` [CBK002823]: the viability at 28.5 h, 10 µM is 92.2%. In the case of `CS(=O)(=O)Nc1nccnc1OC1CCN(CCc2ccccn2)CC1` [CBK084286], the viability at 28.5 h, 10 µM stood at 109%.

Turning to `O=S(=O)(Nc1cccc2cc[nH]c12)c1ccc(Br)cc1C(F)(F)F` [CBK159519], the viability at 28.5 h, 10 µM was 88.5%.

As to `CC(C)Oc1ccc(-c2cc(C(=O)NCc3ccncc3)c3ccccc3n2)cc1` [CBK293957], the viability at 28.5 h, 10 µM came to 106%. With `O=C(Nc1nccs1)c1ncoc1-c1cccs1` [CBK283975], the viability at 28.5 h, 10 µM stood at 102%. Consider `O=C1COc2ccccc2C/C=C/C[C@H]2CN(C(=O)CN3CCN(CCO)CC3)CC[C@H]2N1` [CBK292146], for which the viability at 28.5 h, 10 µM is 110%. Regarding `Nc1ccn([C@H]2C[C@@H](O)[C@@H](CO)O2)c(=O)n1` [CBK201274], the viability at 28.5 h, 10 µM stood at 96.2%.

Regarding `O=C(C1=C(O)C(=O)N(CCCn2ccnc2)C1c1ccncc1)c1ccc(F)cc1` (stereo not shown) [CBK264601], the viability at 28.5 h, 10 µM was 93.7%.

Turning to `CC(C)C[C@@H]1N[C@H](C(=O)NCCN(C)C)Cc2c[nH]c3cccc1c23` [CBK289417], the viability at 28.5 h, 10 µM came to 92.9%. As to `O=C(O)CSC1c2ccccc2Oc2ccc(F)cc21` (stereo not shown) [CBK266462], the viability at 28.5 h, 10 µM came to 98%.

With `O=C(C1CCCO1)N1C2CCC1CC(O)(c1ccco1)C2` (stereo not shown) [CBK284035], the viability at 28.5 h, 10 µM came out at 83%. For `O=C1NC/C=C/CC2(CCN(c3ncccn3)CC2)C(=O)NCCOc2ccccc21` [CBK292081], the viability at 28.5 h, 10 µM is 90.3%.

The values above are taken from PMC12040169 (PLOS Biology, 2025).
